Among the data in ChEMBL document CHEMBL1144938, “Human beta-secretase (BACE) and BACE inhibitors” (J Med Chem, 2003) are IC50 and EC50 values, retold here.

Numbered stars: 1 amine (or outer) side, 2 acyl side, 3 side chain; on linkers, the order of the positions; unused ones are H or OH. Square brackets hold non-standard residues; d marks the D form. Peptide text beside a SMILES is read from it. Sta = CC(C)C[C@H](N)[C@@H](O)CC(=O)O; X1 = CCC(O)[C@H](N[*:1])C(=O)[*:2]; Orn = NCCC[C@H](N)C(=O)O

The target in experiment [1] is T1, Beta-secretase 1 (Homo sapiens, UniProt P56817). Kind of experiment: Compound was tested for its inhibitory activity against human beta-Secretase (BACE).
T1 sequence (P56817 whole entry): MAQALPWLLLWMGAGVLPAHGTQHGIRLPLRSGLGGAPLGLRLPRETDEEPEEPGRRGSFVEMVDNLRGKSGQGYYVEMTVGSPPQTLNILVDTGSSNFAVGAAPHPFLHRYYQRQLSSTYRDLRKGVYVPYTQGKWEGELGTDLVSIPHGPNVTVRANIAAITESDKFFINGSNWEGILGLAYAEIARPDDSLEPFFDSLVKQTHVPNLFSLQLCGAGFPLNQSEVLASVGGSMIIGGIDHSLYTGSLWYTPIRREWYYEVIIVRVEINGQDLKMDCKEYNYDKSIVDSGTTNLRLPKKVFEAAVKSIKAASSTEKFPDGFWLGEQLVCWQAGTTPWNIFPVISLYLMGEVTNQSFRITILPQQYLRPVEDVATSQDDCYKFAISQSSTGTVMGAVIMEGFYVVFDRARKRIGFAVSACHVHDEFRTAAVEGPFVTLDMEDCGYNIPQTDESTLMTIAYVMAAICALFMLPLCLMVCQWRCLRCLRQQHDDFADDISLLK
Experiment [2] addresses T1, Beta-secretase 1. Kind of experiment: Compound was tested for its effective concentration against human beta-Secretase (BACE).

As usually defined, the IC50 is the midpoint of a concentration-inhibition curve. A higher IC50 goes with weaker potency in that assay. At Beta-secretase 1 [1], `CCC(O)[C@H](NC(=O)[C@@H](N)CCCN)C(=O)N[C@@H](CCC(=O)O)C(=O)N[C@@H](CCC(=O)O)C(=O)N[C@H](C(=O)N[C@@H](CO)C(=O)N[C@@H](CCC(=O)O)C(=O)N[C@H](C(=O)N[C@@H](CCSC)C(=O)N[C@@H](CC(C)C)[C@@H](O)CC(=O)N[C@H](C(=O)N[C@@H](C)C(=O)N[C@@H](CCC(=O)O)C(=O)N[C@@H](Cc1ccccc1)C(=O)O)C(C)C)C(C)C)[C@@H](C)CC` (stereo partly specified) (H-[Orn][X1]EEISEVM[Sta]VAEF-OH) displayed a 50% inhibitory concentration (IC50) of 30 nM.
What is called EC50 is the concentration needed to bring the measured effect to its halfway point. `COC(=O)c1cc(NC(=O)[C@@H](NC(=O)C[C@H](O)[C@H](Cc2cc(F)cc(F)c2)NC(=O)C(O)c2ccccc2-c2ccccc2)C(C)C)cc(C(=O)OC)c1` (stereo partly specified): the IC50 against Beta-secretase 1 [1] was 120 nM. For the same molecule, on Beta-secretase 1 [2], the half-maximal effective concentration (EC50) is 4000 nM.
Regarding `CSCC[C@H](NC(=O)[C@@H](NC(=O)OC(C)(C)C)C(C)C)C(=O)N[C@@H](CC(C)C)[C@@H](O)C[C@@H](C)C(=O)N[C@H](C(=O)NCc1ccccc1)C(C)C`, on Beta-secretase 1 [1], the IC50 was 2 nM.
The molecule `CC(C)[C@H](NC(=O)C[C@H](O)[C@H](Cc1cc(F)cc(F)c1)NC(=O)C(O)c1ccccc1-c1ccccc1)C(=O)Nc1cc(C(=O)O)cc(C(=O)O)c1` (stereo partly specified) came in with a half-maximal inhibitory concentration (IC50) against Beta-secretase 1 [1] of 20 nM. Further, the midpoint of the response on Beta-secretase 1 [2], the EC50, lay at 10000 nM.
